Measured values as given in the supplement of paper PMC11451515.

Test system: NOMO1
Assay: cell viability relative to DMSO control; higher = less cytotoxic
Settings: 48 h
How it was run: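 Library compounds in DMSO were pin-dosed into 1536-well plates (5 μl) holding NOMO1 or SEM (500 cells/well) or P12-Ichikawa (1000 cells/well) leukemia cells, across an 11-point threefold series of 47 μM to 0.79 nM. Each cell line had been adapted for at least four passages in each medium. CellTiter-Glo One luminescence was read after 48 h at 37°C. Viability is the per-plate percentage relative to DMSO wells, with cell-free wells as background.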

[1] = HPLM + 10% dialyzed FBS, 0.000781 µM
[2] = HPLM + 10% dialyzed FBS, 0.00234 µM
[3] = HPLM + 10% dialyzed FBS, 0.00702 µM
[4] = HPLM + 10% dialyzed FBS, 0.0211 µM
[5] = HPLM + 10% dialyzed FBS, 0.0632 µM
[6] = HPLM + 10% dialyzed FBS, 0.19 µM
[7] = HPLM + 10% dialyzed FBS, 0.569 µM
[8] = HPLM + 10% dialyzed FBS, 1.71 µM
[9] = HPLM + 10% dialyzed FBS, 5.12 µM
[10] = HPLM + 10% dialyzed FBS, 15.4 µM
[11] = HPLM + 10% dialyzed FBS, 46.1 µM
[12] = RPMI 5 mM glucose + 10% FBS, 0.000781 µM
[13] = RPMI 5 mM glucose + 10% FBS, 0.00234 µM
[14] = RPMI 5 mM glucose + 10% FBS, 0.00702 µM
[15] = RPMI 5 mM glucose + 10% FBS, 0.0211 µM
[16] = RPMI 5 mM glucose + 10% FBS, 0.0632 µM
[17] = RPMI 5 mM glucose + 10% FBS, 0.19 µM
[18] = RPMI 5 mM glucose + 10% FBS, 0.569 µM
[19] = RPMI 5 mM glucose + 10% FBS, 1.71 µM
[20] = RPMI 5 mM glucose + 10% FBS, 5.12 µM
[21] = RPMI 5 mM glucose + 10% FBS, 15.4 µM
[22] = RPMI 5 mM glucose + 10% FBS, 46.1 µM
[23] = RPMI 5 mM glucose + 10% dialyzed FBS, 0.000781 µM
[24] = RPMI 5 mM glucose + 10% dialyzed FBS, 0.00234 µM
[25] = RPMI 5 mM glucose + 10% dialyzed FBS, 0.00702 µM
[26] = RPMI 5 mM glucose + 10% dialyzed FBS, 0.0211 µM
[27] = RPMI 5 mM glucose + 10% dialyzed FBS, 0.0632 µM
[28] = RPMI 5 mM glucose + 10% dialyzed FBS, 0.19 µM
[29] = RPMI 5 mM glucose + 10% dialyzed FBS, 0.569 µM
[30] = RPMI 5 mM glucose + 10% dialyzed FBS, 1.71 µM
[31] = RPMI 5 mM glucose + 10% dialyzed FBS, 5.12 µM
[32] = RPMI 5 mM glucose + 10% dialyzed FBS, 15.4 µM
[33] = RPMI 5 mM glucose + 10% dialyzed FBS, 46.1 µM

SMILES | cell viability [1] | cell viability [2] | cell viability [3] | cell viability [4] | cell viability [5] | cell viability [6] | cell viability [7] | cell viability [8] | cell viability [9] | cell viability [10] | cell viability [11] | cell viability [12] | cell viability [13] | cell viability [14] | cell viability [15] | cell viability [16] | cell viability [17] | cell viability [18] | cell viability [19] | cell viability [20] | cell viability [21] | cell viability [22] | cell viability [23] | cell viability [24] | cell viability [25] | cell viability [26] | cell viability [27] | cell viability [28] | cell viability [29] | cell viability [30] | cell viability [31] | cell viability [32] | cell viability [33]
NC/1=N/C(=O)C2=C([NH]C=C2CCC3=CC=C(C=C3)C(=O)N[C@@H](CCC(O)=O)C(O)=O)N1 | 107% | 99.2% | 110% | 104% | 107% | 116% | 78.2% | 46.2% | 41.8% | 38.8% | 29.7% | 88% | 92.2% | 103% | 94.2% | 96.2% | 94.4% | 93.9% | 112% | 92.5% | 78.9% | 75.5% | 104% | 91.4% | 96% | 105% | 103% | 104% | 103% | 86% | 40.5% | 40.1% | 38.3%
O=C(O)C(=O)Nc1cccc(-c2nnn[nH]2)c1 | 96.8% | 117% | 117% | 119% | 114% | 108% | 130% | 114% | 123% | 106% | 116% | 94.3% | 102% | 109% | 95.8% | 111% | 108% | 97.3% | 106% | 108% | 120% | 99.2% | 109% | 103% | 111% | 99.2% | 112% | 106% | 126% | 104% | 113% | 113% | 120%
CNC(=O)c1ccccc1Sc1ccc2c(/C=C/c3ccccn3)n[nH]c2c1 | – | – | – | – | – | – | – | – | – | – | – | 108% | 116% | 107% | 115% | 118% | 105% | 112% | 91.5% | 74.8% | 68.8% | 84.2% | 103% | 119% | 123% | 109% | 104% | 100% | 107% | 74.9% | 74.8% | 68.8% | 67.9%
Cc1cccc(Nc2nc(N[C@@H]3CCCC[C@@H]3N)ncc2C(N)=O)c1 | 119% | 109% | 119% | 115% | 115% | 126% | 110% | 80.9% | 77.4% | 85.5% | 83% | 96.1% | 106% | 114% | 117% | 129% | 109% | 113% | 99.1% | 58.7% | 56% | 51.5% | 101% | 99.2% | 109% | 107% | 119% | 115% | 108% | 82.4% | 55.5% | 58.6% | 56.8%
CCN(CCO)CCCC(C)Nc1ccnc2cc(Cl)ccc12 (stereo not drawn) | 111% | 105% | 104% | 123% | 112% | 139% | 107% | 101% | 90% | 53.2% | 26% | 107% | 115% | 110% | 102% | 101% | 118% | 115% | 116% | 110% | 45.2% | 21% | – | – | – | – | – | – | – | – | – | – | –
CC[C@@H](C)[C@H](NC(=O)[C@H](CC1CCCCC1)NC(=O)c1ccno1)C(=O)N1CCC2(CCc3ccccc32)CC1 | 85.9% | 90.6% | 86.1% | 78.9% | 108% | 97.3% | 75.9% | 66.1% | 79.2% | 81.7% | 69.9% | 80.1% | 88.6% | 81.1% | 79.9% | 77.1% | 78.3% | 89.1% | 81.9% | 84.6% | 74.4% | 72.2% | 84% | 85.4% | 84% | 77.9% | 87.6% | 82.4% | 76.2% | 69.8% | 82.6% | 73.7% | 83.2%
COC1=CC2=C(C=C1CC3=C(F)C(=CC=C3)Cl)C(=O)\C(=C/N2[C@H](CO)C(C)C)C(O)=O | 122% | 142% | 123% | 128% | 114% | 131% | 124% | 118% | 127% | 89.6% | 27.7% | 115% | 117% | 109% | 104% | 115% | 129% | 108% | 102% | 110% | 102% | 14.7% | 110% | 118% | 138% | 130% | 131% | 129% | 123% | 118% | 123% | 115% | 24.7%
OCCN1CCN(CCCN2c3ccccc3Sc3ccc(C(F)(F)F)cc32)CC1 | 123% | 121% | 107% | 122% | 111% | 106% | 98.8% | 122% | 73.2% | 43% | 27.7% | 104% | 104% | 100% | 121% | 97.5% | 110% | 112% | 105% | 104% | 25.7% | 21.3% | 91.6% | 102% | 108% | 105% | 105% | 109% | 110% | 97.3% | 109% | 93.9% | 24.8%
O=C1N\N=C(\C[C@@H]2CCN(C2)C(=O)C3CC3)N1C4=CC=C(C=C4)C5=CC=C6OC=CC6=C5 | 99.4% | 89% | 90.1% | 94.5% | 94.7% | 99% | 92% | 109% | 94.4% | 73.9% | 92.2% | 78.2% | 77.4% | 87.3% | 77.6% | 90% | 79.9% | 95.3% | 82.3% | 85.6% | 81.3% | 80.5% | 85.5% | 86.8% | 75.5% | 82.5% | 80.5% | 81.6% | 85.4% | 82.3% | 86% | 75.5% | 87.7%
Cc1ccccc1C(C(=O)NC1CCCC1)N(C(=O)Cn1cnc2ccccc21)c1cccc(F)c1 (stereo not drawn) | – | – | – | – | – | – | – | – | – | – | – | 118% | 114% | 127% | 105% | 125% | 107% | 113% | 121% | 108% | 110% | 99.8% | – | – | – | – | – | – | – | – | – | – | –
COc1cc([C@@H]2c3cc4c(cc3[C@H](O)[C@H]3COC(=O)[C@H]23)OCO4)cc(OC)c1OC | 82.2% | 54.7% | 43.6% | 37.9% | 24.6% | 30.1% | 33.9% | 38.5% | 29.4% | 30.6% | 5.9% | 76.2% | 92.9% | 17.5% | 21.1% | 12.1% | 19.2% | 17.5% | 18.5% | 16.4% | 18.5% | 5.06% | 78.5% | 89.8% | 26.2% | 23.7% | 16.9% | 24.8% | 20.2% | 18.2% | 17.9% | 18.9% | 6.11%
CNC(=O)c1cc(Oc2ccc(NC(=O)Nc3ccc(Cl)c(C(F)(F)F)c3)c(F)c2)ccn1 | 81.7% | 96.4% | 112% | 107% | 105% | 104% | 109% | 105% | 73.6% | 77.1% | 70.6% | 86.5% | 103% | 94.8% | 108% | 97.1% | 94.3% | 95.6% | 86.2% | 85.4% | 83.4% | 69.7% | 88% | 94.8% | 89.8% | 92.4% | 98.5% | 109% | 104% | 97.9% | 80.3% | 82.2% | 73.6%
C[C@]12CCC(=O)C(O)=C1CC[C@@H]1[C@@H]2CC[C@]2(C)C(=O)CC[C@@H]12 | – | – | – | – | – | – | – | – | – | – | – | 123% | 114% | 105% | 123% | 129% | 110% | 128% | 104% | 107% | 98.9% | 95% | – | – | – | – | – | – | – | – | – | – | –
Clc1ccc(C(Cn2ccnc2)OCc2ccc(Sc3ccccc3)cc2)c(Cl)c1 (stereo not drawn) | 126% | 101% | 124% | 120% | 146% | 109% | 126% | 107% | 109% | 98.8% | 104% | 99.2% | 108% | 106% | 111% | 111% | 125% | 104% | 103% | 118% | 70.9% | 63.8% | 111% | 123% | 116% | 112% | 116% | 125% | 134% | 104% | 124% | 88.9% | 59.8%
CN(C)c1ccccc1CN1CCCN(Cc2ccccc2N(C)C)C1c1ccncc1 | 93.7% | 103% | 91.6% | 29.8% | 113% | 115% | 108% | 110% | 99.9% | 95.7% | 65.7% | 86.4% | 82.7% | 89.2% | 18.6% | 89.4% | 88% | 91.1% | 81.3% | 83.5% | 89.7% | 74.5% | 77.3% | 88.7% | 90.6% | 33.3% | 93% | 99.6% | 93.7% | 97.7% | 95.4% | 95% | 65%
NCC/1=C/NC(=S)N1[C@H]2CCC3=C(F)C=C(F)C=C3C2 | – | – | – | – | – | – | – | – | – | – | – | 106% | 108% | 105% | 102% | 112% | 103% | 124% | 106% | 101% | 105% | 79.4% | – | – | – | – | – | – | – | – | – | – | –
CCOC(=O)c1c(/C(C#N)=C\N)c2ccc(Cl)c(Cl)c2n1C | 89.9% | 95.7% | 94.3% | 95% | 72.6% | 101% | 91.1% | 87.2% | 94% | 95.8% | 103% | 81.9% | 80.7% | 82.5% | 92% | 80.4% | 77.3% | 79.7% | 88% | 80.8% | 78.6% | 95.3% | 90.7% | 90.1% | 87.7% | 91.4% | 79.2% | 77% | 86% | 86.8% | 87.2% | 77.6% | 101%
